Results: patent publication US8314138B2, “Pyrazole derivative as SCD1 inhibitors for the treatment of diabetes” (Novartis AG, priority 2006, dated 2012)

The compounds below were run against T1, stearoyl-CoA desaturase (SCD1) (Mus musculus, UniProt P13516) (assay: SCD microsomal assay: release of 3H2O from [9,10-3H]stearoyl-CoA in mouse liver microsomes). Settings: 15 min incubation, 25° C.
T1 construct: Male ICR outbread mice, on a high-carbohydrate, low fat diet; from tissue; host or cells: liver microsomes of male ICR mice on a high-carbohydrate, low fat diet
T1 sequence (P13516 1-355): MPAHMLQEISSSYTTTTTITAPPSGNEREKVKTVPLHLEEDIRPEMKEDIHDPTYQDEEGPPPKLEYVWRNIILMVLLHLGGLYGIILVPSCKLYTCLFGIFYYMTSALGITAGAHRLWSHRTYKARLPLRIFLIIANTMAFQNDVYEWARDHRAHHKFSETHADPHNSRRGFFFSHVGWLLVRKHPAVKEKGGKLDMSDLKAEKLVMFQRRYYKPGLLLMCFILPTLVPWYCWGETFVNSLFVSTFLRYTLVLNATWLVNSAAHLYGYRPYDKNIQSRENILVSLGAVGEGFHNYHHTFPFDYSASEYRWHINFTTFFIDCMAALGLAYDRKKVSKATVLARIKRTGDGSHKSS
Type: biochemical
Source text: The identification of compounds of the invention as SCD inhibitors was readily accomplished using the SCD enzyme and microsomal assay procedure described in Shanklin J. and Summerville C., Proc. Natl. Acad. Sci. USA (1991), Vol. 88, pp. 2510-2514.
Measuring Stearoyl-CoA Desaturase Inhibition Activity of a Test Compound Using Mouse Liver Microsomes
The identification of compounds of the invention as SCD inhibitors was readily accomplished using the SCD microsomal assay procedure described in Shanklin J. and Summerville C., Proc. Natl. Acad. Sci. USA (1991), Vol. 88, pp. 2510-2514, which is incorporated herein by reference in its entirety.
Preparation of Mouse Liver Microsomes:
Male ICR outbread mice, on a high-carbohydrate, low fat diet, under light halothane (15% in mineral oil) anesthesia are sacrificed by exsanguination during periods of high enzyme activity. Livers are immediately rinsed with cold 0.9% NaCl solution, weighed and minced with scissors. All procedures are performed at 4° C. unless specified otherwise. Livers are homogenized in a solution (1/3 w/v) containing 0.25 M sucrose, 62 mM potassium phosphate buffer (pH 7.0), 0.15 M KCl, 15 mM N-acetylcysteine, 5 mM MgCl2, and 0.1 mM EDTA using 4 strokes of a Potter-Elvehjem tissue homogenizer. The homogenate is centrifuged at 10,400×g for 20 min to eliminate mitochondria and cellular debris. The supernatant is filtered through a 3-layer cheesecloth and centrifuged at 105,000×g for 60 min. The microsomal pellet is gently resuspended in the same homogenization solution with a small glass/teflon homogenizer and stored at −70° C. The absence of mitochondrial contamination is enzymatically assessed. The protein concentration is measured using bovine serum albumin as the standard.
Incubation of Mouse Liver Microsomes with Test Compounds:
Desaturase activity is measured as the release of ^3H2O from [9,10-^3H]stearoyl-CoA. Reactions per assay point conditions are as follows: 2 μL 1.5 mM stearoyl-CoA, 0.25 μL 1 mCi/mL ^3H stearoyl CoA, 10 μL 20 mM NADH, 36.75 μL 0.1 M PK buffer (K2HPO4/NaH2PO4, pH 7.2). The test compound or control solution is added in a 1 μL volume. Reactions are started by adding 50 μL of microsomes (1.25 mg/mL). The plates are mixed and after 15 min incubation on a heating block (25° C.), the reactions are stopped by the addition of 10 μL 60% PCA. An aliquot of 100 μL is then transferred to a filter plate pretreated with charcoal and the plate centrifuged at 4000 rpm for 1 minute. The flow through containing the ^3H2O released by the SCD1 desaturation reaction is added to scintillation fluid and the radioactivity measured in a Packard TopCount. The data is analyzed to identify the IC50 for test compounds and reference compounds. […] The activity was defined in terms of % SCD enzyme activity remaining at the desired concentration of the test compound or as the IC50 concentration. The IC50 (affinity) of the example compounds toward the stearoyl-CoA desaturase is comprised between around 20 μM and 0.0001 μM or between around 5 μM and 0.0001 μM or between around 1 μM and 0.0001 μM.

Compound | IC50
Cc1nc(-c2cncc(N(C)CCCc3ccccc3)n2)sc1C(=O)NCc1ccc(F)cc1 [Example 16, 4-methyl-2-{6-[methyl-(3-phenyl-propyl)-amino]-pyrazin-2-yl}-thiazole-5-carboxylic acid 4-fluoro-benzylamide] | 164 nM
Cc1nc(-c2cncc(CCc3ccccc3)n2)sc1C(=O)NCc1ccccc1 [Example 4, 4-methyl-2-(6-phenethyl-pyrazin-2-yl)-thiazole-5-carboxylic acid benzylamide] | 42 nM
Cc1nc(-c2cncc(N(C)Cc3ccc(F)cc3)n2)sc1C(=O)NCc1ccccc1 [Example 29, 2-{6-[(4-fluoro-benzyl)-methyl-amino]-pyrazin-2-yl}-4-methyl-thiazole-5-carboxylic acid benzylamide] | 124 nM
Cc1nc(-c2ccn(CCCc3ccccc3)n2)sc1C(=O)NCc1ccccc1 [Example 37, 4-methyl-2-[1-(3-phenyl-propyl)-1H-pyrazol-3-yl]-thiazole-5-carboxylic acid benzylamide] | 71 nM
Cc1nc(-c2ccn(CCN(C)c3ccccc3)n2)sc1C(=O)NCc1cccnc1 [Example 79, 4-methyl-2-{1-[2-(methyl-phenylamino)-ethyl]-1H-pyrazol-3-yl}-thiazole-5-carboxylic acid (pyridin-3-ylmethyl)amide] | 49 nM
COc1ccc(CN(C)c2cncc(-c3nc(C)c(C(=O)NCc4ccc(F)cc4)s3)n2)cc1 [Example 22, 2-{6-[(4-methoxy-benzyl)-methyl-amino]-pyrazin-2-yl}-4-methyl-thiazole-5-carboxylic acid 4-fluoro-benzylamide] | 98 nM
Cc1nc(-c2ccn(CCC3CC3)n2)sc1C(=O)NCc1ccc(F)cc1 [Example 85, 2-[1-(2-cyclopropyl-ethyl)-1H-pyrazol-3-yl]-4-methyl-thiazole-5-carboxylic acid 4-fluoro-benzylamide] | 147 nM
Cc1nc(-c2ccn(Cc3ccc(S(C)(=O)=O)cc3)n2)sc1C(=O)NCc1cccnc1 [Example 66, 2-[1-(4-methanesulfonyl-benzyl)-1H-pyrazol-3-yl]-4-methyl-thiazole-5-carboxylic acid (pyridin-3-ylmethyl)amide] | 172 nM
Cc1nc(-c2ccn(Cc3ccc(C#N)cc3)n2)sc1C(=O)NCc1cccnc1 [Example 52, 2-[1-(4-cyano-benzyl)-1H-pyrazol-3-yl]-4-methyl-thiazole-5-carboxylic acid (pyridin-3-ylmethyl)amide] | 74 nM
COc1ccc(CCn2ccc(-c3nc(C)c(C(=O)NCc4ccc(F)cc4)s3)n2)cc1 [Example 87, 2-{1-[2-(4-Methoxy-phenyl)-ethyl]-1H-pyrazol-3-yl}-4-methyl-thiazole-5-carboxylic acid 4-fluoro-benzylamide] | 96 nM
